IC50 data for 25 compounds are collected here from US8975265B2, “Substituted imidazo[1,2-a]pyrimidines and —pyridines” (Bayer Intellectual Property GmbH, priority 2010, dated 2015).

Assay [1] deals with p-4E-BP1-T70 in KPL4 breast tumour cell line. Nature of the assay: Cellular p-4E-BP1-T70 assay. The format is cell-based. The conditions noted are these: 2 hours treatment, read-out: P4EBP1-T70 median IC50. The protocol:
The molecular mechanism of action was investigated in a set of experiments to assess the inhibition of the PI3K-AKT-mTOR pathway in responsive cell lines such as KPL4 breast tumour cell line (PIK3CAH1047R, HER20/E and hormone independent). The phospho-substrates of PI3K-AKT-mTOR axis were used as the read-outs to reflect pathway inhibition. Cells were seeded at 60-80% confluency per well in 96-well cell culture plates. After overnight incubation at 37° C. 5% CO2, cells were treated with compounds and vehicle at 37° C. for 2 hours. Thereafter, cells were lysed in 150 μl lysis buffer and the levels of phospho-AKT at T308 and S473 and p-4E-BP1 at T70 sites were determined with the corresponding AlphaScreen® SureFire® assay kits (Perkin Elmer: 4E-BP1 Assay Kit Cat # TRG4E2S10K; Akt 1/2/3 p-Ser 473 #TGRA4S500 and Akt 1/2/3 p-Thr 308 #TGRA3S500 as well as IgG detection Kit #6760617M) as described in the manuals. All measurements where at least done in duplicates and confirmed by independent repetition.

Assay [2] deals with His-tagged human recombinant kinase full-length Akt1 (Homo sapiens (Human), UniProt P31749). Put plainly: Akt1 kinase assay (TR-FRET). The class given is biochemical. The conditions noted are these: 10 μM ATP; read-out: Akt1, median IC50. The method in brief:
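Full-length His-tagged Akt1 (about 0.05 ng/μl final) preincubated 15 min at 22 °C with compound in 50 mM TRIS/HCl pH 7.5, 5 mM MgCl2, 1 mM DTT, 0.02% Triton X-100; biotinylated peptide substrate. Phosphopeptide detected by TR-FRET (Eu-chelate antibody to streptavidin-XL665) after 1 h at 22 °C.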

Assay [3] concerns KPL-4 breast cancer cell line. Nature of the assay: Tumor cell proliferation assay (CellTiter-Glo, 72 h), KPL-4. The format is cell-based. The conditions noted are these: KPL4, 72h drug exposure. The method, boiled down: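 KPL-4 cells were treated with compound for 72 h at 37°C. Viability was measured as ATP by CellTiter-Glo luminescence, with a separate t=0 plate read after overnight attachment. A reference compound was run as standard.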

In assay [4] the test system is p-AKT1/2/3-S473 in KPL4 breast tumour cell line. Nature of the assay: Cellular p-AKT1/2/3-S473 assay. The format is cell-based. The settings on record: KPL4 breast tumour cell line, 2 hours treatment; read-out: pAKT-S743 median IC50. The method, boiled down:
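KPL4 cells (PIK3CA H1047R, HER2 0/E, hormone independent) were seeded at 60–80% confluency, cultured overnight, then exposed to compound for 2 h at 37 °C. pAKT-S473 and total AKT measured together by MSD Akt Duplex on 20 µg extract; pAKT expressed as % of total AKT, at least duplicate with independent repeats.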

Assay [5] concerns MCF7. Nature of the assay: Tumor cell proliferation assay (CellTiter-Glo, 72 h), MCF7. The format is cell-based. The settings on record: Homo sapiens, 72h drug exposure. The protocol: Compounds were tested in a cell-based assay that measures the capacity of the compounds to inhibit tumour cell proliferation following a 72h drug exposure. Cell viability is determined using CellTiter-Glow® (CTG, Promega, cat# G7571/2/3). The CellTiter-Glo® Luminescent Cell Viability Assay is a homogeneous method to determine the number of viable cells in culture. Detection is based on using the luciferase reaction to measure the amount of ATP from viable cells. The amount of ATP in cells correlates with cell viability. Within minutes after a loss of membrane integrity, cells lose the ability to synthesize ATP, and endogenous ATPases destroy any remaining ATP; thus the levels of ATP fall precipitously.
Cells were plated at 3000-5000 cells/well (depending on the cell lines) in 90 μL growth medium on MTPs (Corning; #3603, black plate, clear flat bottom). For each cell line assayed, cells were plated onto a separate plate for determination of […] at t=0 hour and t=72 hour time points. Following overnight incubation at 37° C., chemiluminescence values for the t=0 samples were determined after adding 10 μl medium and 100 μl CTG solution according to manufacture protocol. Plates for the t=72 hour time points were treated with compounds diluted into growth medium at ten times final concentration added in 10 μL to the cell culture plate. Cells were then incubated for 72 hours at 37° C. Chemiluminescence values for the t=72 hour samples were determined. […] Experiments were controlled using a reference compound as standard.

Chain of His-tagged human recombinant kinase full-length Akt1 (P31749 whole entry): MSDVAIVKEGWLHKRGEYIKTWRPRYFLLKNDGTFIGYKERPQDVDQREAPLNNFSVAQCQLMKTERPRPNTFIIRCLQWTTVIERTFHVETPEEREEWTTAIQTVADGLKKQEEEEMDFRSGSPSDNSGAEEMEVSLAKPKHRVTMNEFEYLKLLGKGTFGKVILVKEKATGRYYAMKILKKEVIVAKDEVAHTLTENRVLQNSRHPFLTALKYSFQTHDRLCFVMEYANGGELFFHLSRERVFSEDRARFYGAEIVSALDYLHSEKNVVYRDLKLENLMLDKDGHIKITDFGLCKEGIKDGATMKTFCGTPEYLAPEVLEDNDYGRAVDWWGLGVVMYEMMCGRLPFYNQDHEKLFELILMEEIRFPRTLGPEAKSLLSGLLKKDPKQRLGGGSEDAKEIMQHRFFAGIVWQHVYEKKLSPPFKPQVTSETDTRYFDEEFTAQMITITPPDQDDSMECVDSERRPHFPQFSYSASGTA

Turning to `NC1(c2ccc(-c3nc4cc(F)ccn4c3-c3ccccc3)cc2)CCC1` [Example 2-67], the IC50 amounted to 2 µM in assay [1]; 0.064 µM in assay [2]; 1.7 µM in assay [3]; 0.195 µM in assay [4]; 1.3 µM in assay [5].
The corresponding values for `NC1(c2ccc(-c3nc4c(Br)cc(Cl)cn4c3-c3ccccc3)cc2)CCC1` [Example 2-85] are 1.8 µM, 0.005 µM, 1.9 µM, 0.161 µM and 1.4 µM.
Regarding `Cc1c(Cl)cn2c(-c3ccccc3)c(-c3ccc(C4(N)CCC4)cc3)nc2c1-c1ccc(F)cc1` [Example 2-87], the IC50 came out at 10 µM in assay [1], 3.7 µM in assay [3], 7.53 µM in assay [4] and 2.1 µM in assay [5].
Turning to `Cc1c(Cl)cn2c(-c3ccccc3)c(-c3ccc(C4(N)CCC4)cc3)nc2c1-c1ccn[nH]1` [Example 2-88], the concentration for half-maximal inhibition (IC50) turned out to be 8.52 µM in assay [1]; 0.187 µM in assay [2]; 2.5 µM in assay [3]; 2.57 µM in assay [4]; 2.1 µM in assay [5].
The corresponding values for `Cc1c(-c2ccn[nH]2)cn2c(-c3ccccc3)c(-c3ccc(C4(N)CCC4)cc3)nc2c1C` [Example 2-89] are 1.4 µM, 0.33 µM, 1.9 µM, 0.38 µM and 1.7 µM.
With `COc1cncc(-c2cc(C)cn3c(-c4ccccc4)c(-c4ccc(C5(N)CCC5)cc4)nc23)c1` [Example 2-91], the IC50 was 1.61 µM in assay [1], 2 µM in assay [3], 0.678 µM in assay [4] and 1.8 µM in assay [5].
The like results for `NC(=O)c1cc(Br)cn2c(-c3ccccc3)c(-c3ccc(C4(N)CCC4)cc3)nc12` [Example 2-94] were, in that order, 0.292 µM, 1.8 µM, 0.058 µM and 1.7 µM.
Turning to `NC(=O)c1cc(Br)c2nc(-c3ccc(C4(N)CCC4)cc3)c(-c3ccccc3)n2c1` [Example 2-95], the IC50 worked out at 0.013 µM in assay [1]; 0.011 µM in assay [2]; 0.4 µM in assay [3]; 0.003 µM in assay [4]; 0.4 µM in assay [5].
Turning to `NC(=O)c1cc(-c2cn[nH]c2)cn2c(-c3ccccc3)c(-c3ccc(C4(N)CCC4)cc3)nc12` [Example 2-97], the IC50 in assay [1] is 1.59 µM; in assay [2], 0.067 µM; in assay [3] it was 1.9 µM; in assay [4] it was 0.377 µM; in assay [5] it was 1.8 µM.
The corresponding values for `NC(=O)c1cc(-c2ccn[nH]2)cn2c(-c3ccccc3)c(-c3ccc(C4(N)CCC4)cc3)nc12` [Example 2-98] are 1.12 µM, 0.069 µM, 1.9 µM, 0.225 µM and 1.9 µM.
Take `NC(=O)c1cc(-c2cccnc2)cn2c(-c3ccccc3)c(-c3ccc(C4(N)CCC4)cc3)nc12` [Example 2-99]: the IC50 was 0.09 µM in assay [1]; 0.177 µM in assay [2]; 1.8 µM in assay [3]; 0.093 µM in assay [4]; 1.8 µM in assay [5].
Take `Cc1c(C(N)=O)cn2c(-c3ccccc3)c(-c3ccc(C4(N)CCC4)cc3)nc2c1C` [Example 2-100]: the IC50 in assay [1] was 0.054 µM; in assay [2], 0.201 µM; in assay [3] it was 0.9 µM; in assay [4], 0.067 µM; in assay [5], 1.2 µM.
The corresponding values for `Cc1cc(C(N)=O)cn2c(-c3ccccc3)c(-c3ccc(C4(N)CCC4)cc3)nc12` [Example 2-101] are 0.089 µM, 0.014 µM, 0.3 µM, 0.019 µM and 0.3 µM.
Consider `Cc1cc(-c2cn[nH]c2)cn2c(-c3ccccc3)c(-c3ccc(C4(N)CCC4)cc3)nc12` [Example 2-102], for which the IC50 in assay [1] worked out at 0.158 µM; in assay [2], 0.106 µM; in assay [3], 1.9 µM; in assay [4], 0.033 µM; in assay [5], 1.9 µM.
In the case of `Cc1cc(-c2ccn[nH]2)cn2c(-c3ccccc3)c(-c3ccc(C4(N)CCC4)cc3)nc12` [Example 2-103], the IC50 in assay [1] is 0.719 µM; in assay [2] it was 0.099 µM; in assay [3] it was 0.2 µM; in assay [4], 0.23 µM; in assay [5] it was 0.2 µM.
`Cc1cc(-c2cccnc2)cn2c(-c3ccccc3)c(-c3ccc(C4(N)CCC4)cc3)nc12` [Example 2-104]: the half-inhibitory concentration (IC50) in assay [1] is 0.348 µM; in assay [2], 0.175 µM; in assay [3], 0.3 µM; in assay [4], 0.112 µM; in assay [5], 0.2 µM.
As for `Cc1cc(-c2cc(C)c3nc(-c4ccc(C5(N)CCC5)cc4)c(-c4ccccc4)n3c2)[nH]n1` [Example 2-105], the half-inhibitory concentration (IC50) came out at 0.573 µM in assay [1]; 0.217 µM in assay [2]; 2.2 µM in assay [3]; 0.669 µM in assay [4]; 1.8 µM in assay [5].
The like results for `NC1(c2ccc(-c3nc4ccc(-c5cnc[nH]5)cn4c3-c3ccccc3)cc2)CCC1` [Example 2-129] were, in that order, 2.18 µM, 0.195 µM, 1.8 µM, 0.18 µM and 0.3 µM.
Consider `CCc1cc(OC)c2nc(-c3ccc(C4(N)CCC4)cc3)c(-c3ccccc3)n2c1` [Example 2-147], for which the IC50 in assay [1] was 1.34 µM; in assay [2], 0.148 µM; in assay [3], 1.7 µM; in assay [4], 0.248 µM; in assay [5] it was 0.5 µM.
Turning to `COc1cc(-c2cnc[nH]2)cn2c(-c3ccccc3)c(-c3ccc(C4(N)CCC4)cc3)nc12` [Example 2-148], the IC50 in assay [1] was found to be 1.81 µM; in assay [2], 0.139 µM; in assay [3] it was 1.9 µM; in assay [4] it was 0.397 µM; in assay [5], 1.5 µM.
On to `COc1cc(-c2ncc[nH]2)cn2c(-c3ccccc3)c(-c3ccc(C4(N)CCC4)cc3)nc12` [Example 2-149], for which the 50% inhibitory concentration (IC50) came to 1.96 µM in assay [1]; 0.198 µM in assay [2]; 2.9 µM in assay [3]; 0.576 µM in assay [4]; 1.8 µM in assay [5].
Consider `Nc1ccn2c(-c3ccccc3)c(-c3ccc(C4(N)CCC4)cc3)nc2c1` [Example 2-151], for which the IC50 was determined as 4.81 µM in assay [1]; 0.514 µM in assay [2]; 1.7 µM in assay [3]; 0.482 µM in assay [4]; 0.2 µM in assay [5].
The like results for `Nc1ccc2nc(-c3ccc(C4(N)CCC4)cc3)c(-c3ccccc3)n2c1` [Example 2-155] were, in that order, 2.22 µM, 0.854 µM, 5.5 µM, 0.374 µM and 1.7 µM.
The like results for `CC(=O)Nc1ccc2nc(-c3ccc(C4(N)CCC4)cc3)c(-c3ccccc3)n2c1` [Example 2-156] were, in that order, 1.21 µM, 0.062 µM, 0.9 µM, 0.19 µM and 0.5 µM.
The like results for `CS(=O)(=O)Nc1ccc2nc(-c3ccc(C4(N)CCC4)cc3)c(-c3ccccc3)n2c1` [Example 2-159] were, in that order, 3.29 µM, 2.99 µM, 4.7 µM, 0.907 µM and 2.8 µM.
